Data from paper PMC5004205, “Spiro[pyrrolidine-3, 3´-oxindole] as potent anti-breast cancer compounds: Their design, synthesis, biological evaluation and cellular target identification” (Scientific Reports, 2016).
“Also recorded” adds a separate entry of the source.

Key:
Format in all cases: cell-based
[1] = system: MCF-7 breast cancer cells; assay: MTT colorimetric cell viability assay, MCF-7; settings: for CTRL-TST/CTRL*100 (inhibition) MCF-7: EC50 plate
Description: MCF-7 cells were maintained as monolayer in 25 cm^2 culture flasks (T-25) at 37 °C in DMEM medium (GIBCO, St. Louis, USA) supplemented with high glucose, L-glutamine, pyridoxine hydrochloride, 110 mg/L sodium pyruvate, 3.7 g/L NaHCO3 and antibiotics (Penicillin-10,000 units/mL, Streptomycin −10,000 μg/mL, GIBCO, USA). Growth medium (pH 7.4) was prepared by adding 5% heat inactivated FBS (Fetal Bovine Serum, GIBCO, USA) and stored at 4 °C. The medium was changed 10–18 hrs prior to experiment, and cells were confluent at the time of experimentation. Cells were dislodged from flasks by gentle trypsinization containing 0.25% Trypsin. MCF-7 cells were regularly sub-cultured thrice a week in a seeding density of 40,000–50,000 cells/cm^2area. Cell confluency = 70%
The MTT colorimetric viability assay was performed to evaluate the anticancer effect of compounds. 30,000 cells/100 μl of media were seeded per well and allowed to stretch and adhere overnight at 37 °C. Following day media was removed and 100 μl fresh media was added to the grown cells. […] There was one positive and one negative control along with 13 compounds. The results were measured all in triplicate in 45 wells of 96 well plate at each time point. Cytotoxic effect was evaluated using ability of live cells to cleave MTT ((3-[4, 5- dimethylthiazol-2-yl]-2, 5-diphenyl tetrazolium bromide)) (Sigma-Aldrich, St Louis, MO, USA), into formazan crystals. Post 48 hours of treatment, 10 μl of MTT (5 mg/ml in PBS) was added to the cells and incubated for 4 hours in dark at 37 °C. The violet colored crystals formed were then dissolved in 100 μl DMSO solvent (Dimethyl Sulfoxide, Sigma-Aldrich, St. Louis, MO, USA). The colorimetric assay was read by a MultiMode Plate Reader (Bio-Rad) at 595 nm. Percentage of Inhibition of drug was calculated by following formula:
O.D1 O.D2 O.D3 AVG CTRL-TST CTRL-TST/CTRL*100 stdev

[2] = system: COS-7 cells; assay: MTT colorimetric cell viability assay, COS-7
Description: (§1) The MTT colorimetric viability assay was performed to evaluate the anticancer effect of compounds. 30,000 cells/100 μl of media were seeded per well and allowed to stretch and adhere overnight at 37 °C. Following day media was removed and 100 μl fresh media was added to the grown cells. Adhered cells were then treated with the compounds 5a-m dissolved in DMSO in triplicates at a standard concentration of 50 μM for 48 hours. There was one positive and one negative control along with 13 compounds. The results were measured all in triplicate in 45 wells of 96 well plate at each time point. Cytotoxic effect was evaluated using ability of live cells to cleave MTT ((3-[4, 5- dimethylthiazol-2-yl]-2, 5-diphenyl tetrazolium bromide)) (Sigma-Aldrich, St Louis, MO, USA), into formazan crystals. Post 48 hours of treatment, 10 μl of MTT (5 mg/ml in PBS) was added to the cells and incubated for 4 hours in dark at 37 °C. The violet colored crystals formed were then dissolved in 100 μl DMSO solvent (Dimethyl Sulfoxide, Sigma-Aldrich, St. Louis, MO, USA). The colorimetric assay was read by a MultiMode Plate Reader (Bio-Rad) at 595 nm. Percentage of Inhibition of drug was calculated by following formula: […]

[3] = system: MCF10A cells; assay: MTT cytotoxicity assay, MCF10A
Description: MCF10A was obtained from American Tissue Type Culture Collection (ATCC, Bethesda, MD). All cells were grown in a humidified atmosphere at 37 °C, with 5% CO2 in air.
as §1
Cytotoxicity assay with MCF 10A
Experiment :MCF10A cytotoxicity assay 48 hours
Raw Data{Wavelength:595.0}
O.D1 O.D2 O.D3 AVG CTRL-TEST CTRL-TST/CTRL*100
(1 picture or pasted object on this page, not shown here)

[4] = system: MCF-7 cells; assay: Cell migration (scratch) assay; settings: 24 hours, compared to untreated cells
Description: MCF-7 cells were grown to confluence in six-well tissue culture plastic dishes to a density of ∼0.2 million cells/well. After 24 hrs of seeding, cells were treated with chemical compounds. The medium was removed and the cells were scratched by 200 μL pipette micro tip through the center of the plate. The cultures were washed to remove debris and re-cultured with DMEM containing 10% FBS for cell migration. The cells were imaged at 24 hrs and the migrated distance was measured. Migration rate was calculated by counting five to seven fields per image and the results presented as the average of three independent experiments performed over multiple days.

[5] = system: MCF-7 cells; assay: DNA fragmentation (DNA-ladder) assay; settings: MCF-7, gel electrophoresis
Description: The DMSO (dimethyl sulphoxide)–SDS (sodium dodecyl sulphate)–TE (Tris-EDTA) method: 2 million MCF-7cells were taken as starting material for DNA isolation. Cells were dislodged with Trypsin-EDTA and washed with 1 X PBS. DMSO was added directly to the cell pellet (100 μl) and mixed well by pipetting. TE buffer (pH 7.4) with 2% SDS was added into the mixture with same volume, followed by pipetting. The solution was centrifuged at 3000 rpm at 4 °C and 30 μL of the supernatant was loaded on agarose gel to check the effect of drugs on DNA molecule.

[6] = system: MCF-7 cells; assay: Annexin V/propidium iodide FACS assay
Description: The assay is based on the ability of the protein annexin V to bind to phosphatidylserine (PS) exposed on the outer membrane leaflet in apoptotic cells (PS also appears on the necrotic cell surface). The annexin V assay was performed following the manufacturer’s instructions (Annexin V-FITC kit,Alexa Fluor). Briefly, the cells were washed with PBS and suspended in pre-diluted binding buffer. The cell density was adjusted to 2 million and 195 μl of cell suspension were mixed with 5 μl Annexin V-FITC and incubated for 10 min in the dark at room temperature. The cells were washed with binding buffer, re-suspended in 195 μl binding buffer, counterstained with 10 μl of the 20 μg/ml propidium iodide stock (final concentration 1 μg/ml) and the data were acquired by BD FACS diva 7.0 at 6 h, 12 h and 24 h.

## O=C1Nc2ccccc2C12CCNC2c1ccccc1 (stereo not drawn) [Compound 5l]
[1]; concentration row 10
  CTRL-TST/CTRL*100 (inhibition) MCF-7: 24.36
[1]; concentration row 20
  CTRL-TST/CTRL*100 (inhibition) MCF-7: 33.4492
[1]; concentration row 30
  CTRL-TST/CTRL*100 (inhibition) MCF-7: 48.26
[1]; concentration row 40
  CTRL-TST/CTRL*100 (inhibition) MCF-7: 62.51
[1]; concentration row 50
  CTRL-TST/CTRL*100 (inhibition) MCF-7: 66.98
[1]; Homo sapiens, MCF7, MTT, mean of three experiments
  EC50: 3.5 µM
[1]; Homo sapiens, MCF7, 50 μM, 48 hours, MTT, triplicates, read-out: Percentage inhibition MCF-7
  inhibition at 50 µM: 60.96 ± 0.09%
[2]
  Inhibition of proliferation of healthy COS-7 cells: did not inhibit the proliferation
[2]; Chlorocebus aethiops, COS-7, 50 μM, MTT, triplicates, read-out: Percentage inhibition COS-7
  inhibition at 50 µM: 15.4 ± 0.18%
[3]
  Effect on proliferation of healthy MCF10A cells: did not inhibit the proliferation; also recorded: little or no effect
[3]; 48 hours, 595 nm
  CTRL-TST/CTRL*100 MCF10A cytotoxicity: 0.08
[3]; MTT, 48 hours
  Percentage inhibition MCF10A: 0.08%
[4]
  Inhibition of cell migration of MCF-7 cells: inhibit cell migration
[5]
  DNA fragmentation pattern / mode of cell death: smearing of DNA fragments
[6]
  Mode of cell death by Annexin-PI FACS: necrosis was also confirmed
